According to patent publication US8399487B2, “Pyrazole compounds and uses thereof” (Dart NeuroScience (Cayman) Ltd., priority 2006, dated 2013):
“Also recorded” adds a separate entry of the source.

Tested on: contextual memory in C57BL/6 male mice
Experiment: Contextual Memory Assay: Fear Conditioning
Type: in vivo
Conditions: I.P. 0.01 mg/kg, injected 20 minutes before training, 2 training trials, tested 24 hours after training (FIG. 1)
Text: The ability of a compound to modulate cognitive behavior can be evaluated using the following assay to measure memory after contextual fear conditioning.
Contextual Memory Assay: Fear Conditioning
Contextual memory is a form of Pavlovian fear conditioning in which a naïve mouse is placed into a novel chamber (context) containing distinct visual, olfactory and tactile cues. After a couple of minutes of acclimation, the mouse receives a brief, mild electric shock to its feet. From this negative experience, the mouse will remember for months that that chamber is dangerous. When placed back into the same context at some later time after training, the mouse's natural response to danger is to “freeze,” sitting stone still for many seconds. This is similar to what happens to humans when they experience fear. The percent of time during an observation period that the mouse spends frozen represents a quantitative measure (memory score) of its memory of the context. […]
To assess contextual memory, a modified contextual fear conditioning task originally developed for evaluation of memory in CREB knock-out mice was used (Bourtchouladze, R., et. al., Cell, 1994, 79, 59-68). […] 24 hours after training, the mouse was placed into the same training chamber and contextual memory was assessed by scoring freezing behavior (‘freezing’ serves as memory score). […]

| Structure (SMILES) | contextual memory (freezing to context 24 hr after training) |
| --- | --- |
| CN(C)C(=O)c1ccc(-c2cc(C(F)(F)F)n(C)n2)s1 [Compound 162, 5-(1-Methyl-5-trifluoromethyl-1H-pyrazol-3-yl)-thiophene-2-carboxylic acid dimethylamide] | significantly enhanced contextual memory; also recorded: significantly facilitated freezing to context |
| Cn1nc(-c2ccc(C(=O)N3CCCCC3)s2)cc1C(F)(F)F [Compound 177, [5-(1-Methyl-5-trifluoromethyl-1H-pyrazol-3-yl)-thiophen-2-yl]-piperidin-1-yl-methanone] | significantly enhanced contextual memory; also recorded: significantly facilitated freezing to context |
